# Results reported in patent US8143225B2 (priority 2002, dated 2012).
# Where two headings read alike, the source gives them in different places.
# How the values were obtained:
# [1] = system: adult males and females treated for nocturia; test: Clinical observations in adult males and females treated with desmopressin for nocturia; type: in vivo, human
# Excerpt: Hyponatremia can result in seizures, cardiac arrhythmias, cerebral edema and death.
# [2] = human, in vivo, cited from earlier work
# [3] = Bioavailability of desmopressin conventional tablets (Comparative Example 4); conditions: male, human, in vivo, po, 200 μg
# Excerpt: Thirty-six healthy male volunteers (Caucasian, Black and Hispanic) were enrolled in this study, which was designed as an open label, single dose, 3-way crossover study.
# clinical = conditions: male, human, in vivo
# Procedure: Twenty-four healthy non-smoking male volunteers were enrolled in the present study. The study was designed as a one-centre, open-labelled, randomized, balanced, 4-way cross-over phase I study. […] Between the doses there was a washout period of 72 hours. In order to standardize the buccal mucosa before administration of the orodispersible tablet, the subjects were asked to avoid foods, chewing gun etc. Subjects were allowed to brush their teeth in the morning before dosing, but without toothpaste. […] 3.2 (Pharsight Corporation, US). […] Values below LOQ not followed by values above the LOQ are excluded from the NCA analysis, and set to zero in the descriptive statistics on concentrations.
# [4] = in vivo; cited from earlier work
smiles,measurement,setting,value
"NC(=O)CC[C@@H]1NC(=O)[C@H](Cc2ccccc2)NC(=O)[C@H](Cc2ccc(O)cc2)NC(=O)CCSSC[C@@H](C(=O)N2CCC[C@H]2C(=O)N[C@H](CCCN=C(N)N)C(=O)NCC(N)=O)NC(=O)[C@H](CC(N)=O)NC1=O [desmopressin, 1-desamino-8-D-arginine vasopressin]",incidence of nocturia,[1]; oral doses 100 to 400 mcg and intranasal doses 10 to 20 mcg,decreased the incidence of nocturia
same,incidence of hyponatremia,"[1]; standard oral doses 100 to 400 mcg and intranasal doses 10 to 20 mcg, nocturia patients",unexpectedly high incidence of hyponatremia
same,% Bioavailability,[2]; iv,Intravenous (100) %
same,% Bioavailability,[2]; po,Oral (0.1) %
same,bioavailability,[2]; po,0.1-0.15%
same,% Bioavailability,[2]; sc,Subcutaneous (±90) %
same,bioavailability,[3]; oral 1×200 μg tablet (Comparative Example 2),0.16%
same,bioavailability,[3]; oral 2×100 μg tablets (Comparative Example 3),0.13%
same,bioavailability,clinical,0.23 to 0.38%
same,bioavailability,clinical; bioavailability,0.3%
same,absorption,[4],not significantly absorbed
